According to US20070265238A1, “METHOD FOR ACCELERATING REENTRAINMENT OF A CIRCADIAN RHYTHM” (priority 2006, published 2007):

Test system: body temperature rhythms
Assay: Reentrainment of body temperature circadian rhythm after eastward jet travel across 6 time zones (Detroit to Vienna)
Type: in vivo, human
Settings: applied beneath nostrils each morning on awakening; for length of time to reestablish stable body temperature rhythms: women, vs control vehicle (mineral oil and clove oil), FIG. 1
Description: This experimental involved 15 subjects who were traveling from Detroit, Michigan to Vienna, Austria by air, a journey which spanned 6 time zones. The subjects comprised 8 women and 5 men aged 18-19 and 2 women […]. Two groups of compositions were prepared. The first comprised an experimental formulation containing 20 micrograms of 4,16-androstadien-3-one dissolved in a mixture of mineral oil and clove oil. A second composition comprising a control/placebo consisted of the mineral oil and clove oil. The 2 compositions were each packaged in 5 ml and supplied to selected test subjects along with cotton-tipped applicators. The test and control materials were randomly distributed, and participants were unaware of which composition they had obtained.
Upon arrival in Vienna, each participant was directed to place a small amount of their particular composition directly beneath their nostrils with a new cotton applicator immediately upon awakening each morning. The participants were directed to allow the compositions to remain on their skin for at least an hour.
External temperature monitors (iButton, Inc., Pittsburgh, Pa.) were affixed to each of the subjects with a gauze protective layer between the skin and the monitoring device. The monitors were covered with neoprene material for insulation against environmental temperature interference and held in place with a waterproof medical bandage which was changed every 3 days or as necessary. The monitoring devices were set to acquire temperature every 10 minutes throughout the entire period of the experiment and for a 3-day period prior to travel. Participants also kept daily event logs to monitor the timing of activities that could influence temperature data such as sleep and wake times, showers, exercise and naps. […]
Data were analyzed to determine the length of time needed for core temperature rhythms to reentrain with the new time schedule, returning to a phase angle of entrainment similar to that recorded before travel. […]

SMILES: C[C@@]12C=CC[C@H]1[C@@H]1CCC3=CC(=O)CC[C@]3(C)[C@H]1CC2 [4,16-androstadien-3-one]
- reentrainment rate of body temperature rhythms (men, vs control vehicle): no effects
- length of time to reestablish stable body temperature rhythms: accelerate reestablishment of body temperature rhythms
- length of time to reestablish stable body temperature rhythms (listed as pheromone): reentrained significantly faster
